Measured values published in ChEMBL document CHEMBL2407072 (Eur J Med Chem, 2013).

Tests used:
Carbonic anhydrase 9 = Carbonic anhydrase 9 (Homo sapiens, UniProt Q16790); assay: Inhibition of human recombinant CA9 using 4-nitrophenylacetate as substrate preincubated for 15 mins by stopped-flow CO2 hydration assay
B16-F10 = assay: cells; settings: Mus musculus, B16-F10, 48 h
Description: Cytotoxicity against mouse B16F10 cells after 48 hrs by CCK8 assay

[1] = Cytotoxicity against human macrophages assessed as microscopically detectable alteration of normal cell morphology after 48 hrs […]; format: cell-based; settings: macrophage
MCF7 = settings: Homo sapiens, MCF7, 48 h
A549 [2] = assay: Induction of apoptosis in human A549 cells assessed as early apoptotic cells at 2.5 ug/ml after 48 hrs using propidium iodide staining by FACS assay; format: functional
A549 [3] = assay: Induction of apoptosis in human A549 cells assessed as late apoptotic cells at 2.5 ug/ml after 48 hrs using propidium iodide staining by FACS assay; format: functional
A549 [4] = assay: Induction of apoptosis in human A549 cells assessed as necrotic cells at 2.5 ug/ml after 48 hrs using propidium iodide staining by FACS assay; format: functional
A549 [5] = assay: Induction of apoptosis in human A549 cells assessed as late apoptotic cells at 40 ug/ml after 48 hrs using propidium iodide staining by FACS assay; format: functional
A549 [6] = assay: Induction of apoptosis in human A549 cells assessed as late apoptotic cells at 10 ug/ml after 48 hrs using propidium iodide staining by FACS assay; format: functional
A549 [7] = assay: Induction of apoptosis in human A549 cells assessed as necrotic cells at 10 ug/ml after 48 hrs using propidium iodide staining by FACS assay; format: functional
A549 [8] = assay: Induction of apoptosis in human A549 cells assessed as necrotic cells at 40 ug/ml after 48 hrs using propidium iodide staining by FACS assay; format: functional
A549 [9] = assay: Induction of apoptosis in human A549 cells assessed as early apoptotic cells at 10 ug/ml after 48 hrs using propidium iodide staining by FACS assay; format: functional
A549 [10] = assay: Induction of apoptosis in human A549 cells assessed as viable cells at 160 ug/ml after 48 hrs using propidium iodide staining by FACS assay; format: functional; settings: A549, 48 h, read-out: Activity
A549 [11] = assay: Induction of apoptosis in human A549 cells assessed as viable cells at 40 ug/ml after 48 hrs using propidium iodide staining by FACS assay; format: functional; settings: A549, 48 h, read-out: Activity
A549 [12] = assay: Induction of apoptosis in human A549 cells assessed as early apoptotic cells at 160 ug/ml after 48 hrs using propidium iodide staining by FACS assay; format: functional
A549 [13] = assay: Induction of apoptosis in human A549 cells assessed as necrotic cells at 160 ug/ml after 48 hrs using propidium iodide staining by FACS assay; format: functional
A549 [14] = assay: Induction of apoptosis in human A549 cells assessed as viable cells at 10 ug/ml after 48 hrs using propidium iodide staining by FACS assay; format: functional; settings: A549, 48 h, read-out: Activity
A549 [15] = assay: Induction of apoptosis in human A549 cells assessed as viable cells at 2.5 ug/ml after 48 hrs using propidium iodide staining by FACS assay; format: functional; settings: A549, 48 h, read-out: Activity
A549 [16] = assay: Induction of apoptosis in human A549 cells assessed as late apoptotic cells at 160 ug/ml after 48 hrs using propidium iodide staining by FACS assay; format: functional
A549 [17] = assay: Induction of apoptosis in human A549 cells assessed as early apoptotic cells at 40 ug/ml after 48 hrs using propidium iodide staining by FACS assay; format: functional

Structure (SMILES)	IC50 (Carbonic anhydrase 9)	IC50 (B16-F10)	IC50 (MCF7)	MCC [1]	also measured
N=C(N)NS(=O)(=O)c1ccc(/N=C/c2c(Cl)c3ccccc3oc2=O)cc1	188 nM	180 nM	58 nM	0.62 µmol	–
Cc1ccnc(NS(=O)(=O)c2ccc(/N=C/c3c(Cl)c4ccccc4oc3=O)cc2)n1	84 nM	230 nM	31 nM	–	–
CC(C)(C)c1cc(C(C)(C)C)c2oc(=O)c(/C=N/c3ccc(S(N)(=O)=O)cc3)c(Cl)c2c1	34 nM	240 nM	16 nM	0.58 µmol	–
CC(C)(C)c1cc(C(C)(C)C)c2oc(=O)c(/C=N/c3ccc(S(=O)(=O)Nc4nccs4)cc3)c(Cl)c2c1	51 nM	160 nM	12 nM	–	–
Cc1cc(C)nc(NS(=O)(=O)c2ccc(/N=C/c3c(Cl)c4cc(C(C)(C)C)cc(C(C)(C)C)c4oc3=O)cc2)n1	90 nM	220 nM	8.8 nM	0.73 µmol	–
Cc1cc(NS(=O)(=O)c2ccc(/N=C/c3c(Cl)c4cc(C(C)(C)C)cc(C(C)(C)C)c4oc3=O)cc2)no1	43 nM	240 nM	64 nM	–	–
Cc1ccnc(NS(=O)(=O)c2ccc(/N=C/c3c(Cl)c4cc(C(C)(C)C)cc(C(C)(C)C)c4oc3=O)cc2)n1	24 nM	190 nM	32 nM	0.36 µmol	–
Cc1ccc2oc(=O)c(/C=N/c3ccc(S(N)(=O)=O)cc3)c(Cl)c2c1	85 nM	360 nM	270 nM	1.2 µmol	–
Cc1ccc2oc(=O)c(/C=N/c3ccc(S(=O)(=O)Nc4cc(C)on4)cc3)c(Cl)c2c1	52 nM	250 nM	16 nM	–	–
COc1cccc2c1C(=O)c1c(O)c3c(c(O)c1C2=O)C[C@@](O)(C(=O)CO)C[C@@H]3O[C@H]1C[C@H](N)[C@H](O)[C@H](C)O1 [DOXORUBICIN]	–	72 nM	–	–	–

The next lines start with results.

IC50 (Carbonic anhydrase 9)	IC50 (B16-F10)	IC50 (MCF7)	Structure (SMILES)	MCC [1]	also measured
48 nM	270 nM	61 nM	Cc1ccc2oc(=O)c(/C=N/c3ccc(S(=O)(=O)Nc4nccc(C)n4)cc3)c(Cl)c2c1	0.56 µmol	–
91 nM	300 nM	120 nM	NS(=O)(=O)c1ccc(/N=C/c2c(Cl)c3ccccc3oc2=O)cc1	0.58 µmol	–
138 nM	300 nM	160 nM	O=c1oc2ccccc2c(Cl)c1/C=N/c1ccc(S(=O)(=O)Nc2nccs2)cc1	–	–
124 nM	170 nM	20 nM	Cc1cc(C)nc(NS(=O)(=O)c2ccc(/N=C/c3c(Cl)c4ccccc4oc3=O)cc2)n1	–	Activity (A549 [2]): 6.8%; Activity (A549 [3]): 19.6%; Activity (A549 [4]): 4.14%; Activity (A549 [5]): 6.28%; Activity (A549 [6]): 12.1%; Activity (A549 [7]): 1.58%; Activity (A549 [8]): 2.04%; Activity (A549 [9]): 5.09%; viability at 160 µg/mL (A549 [10]): 72.2%; viability at 40 µg/mL (A549 [11]): 85.1%; Activity (A549 [12]): 9.24%; Activity (A549 [13]): 8.99%; viability at 10 µg/mL (A549 [14]): 81.2%; viability at 2.5 µg/mL (A549 [15]): 69.4%; Activity (A549 [16]): 9.62%; Activity (A549 [17]): 6.54%
141 nM	270 nM	12 nM	Cc1cc(NS(=O)(=O)c2ccc(/N=C/c3c(Cl)c4ccccc4oc3=O)cc2)no1	0.42 µmol	–
74 nM	250 nM	18 nM	CC(C)(C)c1cc(C(C)(C)C)c2oc(=O)c(/C=N/c3ccc(S(=O)(=O)NC(=N)N)cc3)c(Cl)c2c1	–	–
87 nM	280 nM	33 nM	Cc1ccc2oc(=O)c(/C=N/c3ccc(S(=O)(=O)Nc4nccs4)cc3)c(Cl)c2c1	–	–
50 nM	240 nM	67 nM	Cc1ccc2oc(=O)c(/C=N/c3ccc(S(=O)(=O)NC(=N)N)cc3)c(Cl)c2c1	–	–
67 nM	300 nM	25 nM	Cc1ccc2oc(=O)c(/C=N/c3ccc(S(=O)(=O)Nc4nc(C)cc(C)n4)cc3)c(Cl)c2c1	–	–
